Test results taken from patent US7906655B2, “Hepatitis C virus inhibitors” (Bristol-Myers Squibb Company, priority 2008, dated 2011).
pEC50: −log10 of the molar value.

system: HCV 1b genotype; test: HCV Replicon assay (HCV-neo replicon cells, wild-type); format: cell-based; settings: HCV 1b genotype replicon; class symbols
How it was run: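 Assay used wild-type HCV genotype 1b replicon cells carrying neo, with luciferase reporter read-outs in some formats.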

Compound	pEC50
O=C(c1cccnc1)N1CCC[C@H]1c1nc2cc(C#Cc3ccc4[nH]c([C@@H]5CCCN5C(=O)c5cccnc5)nc4c3)ccc2[nH]1 [Example M26.1, N,N′-(1,2-ethynediyl)bis(2-((2S)-1-(3-pyridinylcarbonyl)-2-pyrrolidinyl)-1H-benzimidazole)]	6.00 to 7.00
O=C(C(=O)N1CCC[C@H]1c1nc2cc(C#Cc3ccc4[nH]c([C@@H]5CCCN5C(=O)C(=O)c5ccccc5)nc4c3)ccc2[nH]1)c1ccccc1 [Example M26.3, 2.2′-(1,2-ethynediylbis(1H-benzimidazole-5,2-diyl(2S)-2,1-pyrrolidinediyl))bis(2-oxo-1-phenylethanone)]	6.00 to 7.00
O=C([C@@H]1CCCO1)N1CCC[C@H]1c1nc2cc(C#Cc3ccc4[nH]c([C@@H]5CCCN5C(=O)[C@@H]5CCCO5)nc4c3)ccc2[nH]1 [Example M26.5]	6.00 to 7.00
C[C@H](NC(=O)[C@H](O)c1ccccc1)c1nc2cc(C#Cc3ccc4[nH]c([C@H](C)NC(=O)[C@H](O)c5ccccc5)nc4c3)ccc2[nH]1 [Example M27]	> 8.34
C[C@H](NC(=O)[C@@](C)(O)c1ccccc1)c1nc2cc(C#Cc3ccc4[nH]c([C@H](C)NC(=O)[C@@](C)(O)c5ccccc5)nc4c3)ccc2[nH]1 [Example M28]	> 8.34
C[C@@H](c1nc2cc(C#Cc3ccc4[nH]c([C@H](C)N(C)C(=O)Cc5ccccc5)nc4c3)ccc2[nH]1)N(C)C(=O)Cc1ccccc1 [Example M32]	> 8.34
C[C@@H](c1nc2cc(C#Cc3ccc4[nH]c([C@H](C)N(C)C(=O)[C@H](O)c5ccccc5)nc4c3)ccc2[nH]1)N(C)C(=O)[C@H](O)c1ccccc1 [Example M33]	> 8.34
C[C@@H](c1nc2cc(C#Cc3ccc4nc([C@H](C)N(C)C(=O)[C@@H](c5ccccc5)N(C)C)[nH]c4c3)ccc2[nH]1)N(C)C(=O)[C@@H](c1ccccc1)N(C)C [Example M35]	> 8.34

same assay, conditions: HCV 1b genotype replicon; numeric values

Compound	pEC50
C[C@@H](c1nc2cc(C#Cc3ccc4[nH]c([C@H](C)N(C)C(=O)[C@@](C)(O)c5ccccc5)nc4c3)ccc2[nH]1)N(C)C(=O)[C@@](C)(O)c1ccccc1 [Example M34]	7.40
COC(=O)N[C@@H](C(=O)N(C)[C@@H](C)c1nc2cc(C#Cc3ccc4[nH]c([C@H](C)N(C)C(=O)[C@H](NC(=O)OC)c5ccccc5)nc4c3)ccc2[nH]1)c1ccccc1 [Example M36, dimethyl (1,2-ethynediylbis(1H-benzimidazole-5,2-diyl(1S)-1,1-ethanediyl(methylimino)((1R)-2-oxo-1-phenyl-2,1-ethanediyl)))biscarbamate]	11.30

same assay, conditions: Hepatitis C virus, HCV 1b genotype replicon; class symbols

Compound	pEC50
CN(C)[C@@H](C(=O)N1CCC[C@H]1c1nc2cc(C#Cc3ccc4nc([C@@H]5CCCN5C(=O)[C@@H](c5ccccc5)N(C)C)[nH]c4c3)ccc2[nH]1)c1ccccc1 [Example M19, (1R)-2-((2S)-2-(5-((2-((2S)-1-((2R)-2-(dimethylamino)-2-phenylacetyl)-2-pyrrolidinyl)-1H-benzimidazol-6-yl)ethynyl)-1H-benzimidazol-2-yl)-1-pyrrolidinyl)-N,N-dimethyl-2-oxo-1-phenylethanamine]	> 8.34
O=CN[C@@H](C(=O)N1CCC[C@H]1c1nc2cc(C#Cc3ccc4[nH]c([C@@H]5CCCN5C(=O)[C@H](NC=O)c5ccccc5)nc4c3)ccc2[nH]1)c1ccccc1 [Example M20, N,N′-(1,2-ethynediylbis(1H-benzimidazole-5,2-diyl(2S)-2,1-pyrrolidinediyl((1R)-2-oxo-1-phenyl-2,1-ethanediyl)))diformamide]	> 8.34
CC(=O)N[C@@H](C(=O)N1CCC[C@H]1c1nc2cc(C#Cc3ccc4nc([C@@H]5CCCN5C(=O)[C@H](NC(C)=O)c5ccccc5)[nH]c4c3)ccc2[nH]1)c1ccccc1 [Example M21, N-((1R)-2-((2S)-2-(5-((2-((2S)-1-((2R)-2-acetamido-2-phenylacetyl)-2-pyrrolidinyl)-1H-benzimidazol-6-yl)ethynyl)-1H-benzimidazol-2-yl)-1-pyrrolidinyl)-2-oxo-1-phenylethyl)acetamide]	> 8.34
O=C([C@@H](c1ccccc1)N1CCOCC1)N1CCC[C@H]1c1nc2cc(C#Cc3ccc4[nH]c([C@@H]5CCCN5C(=O)[C@@H](c5ccccc5)N5CCOCC5)nc4c3)ccc2[nH]1 [Example M22, 5,5′-(1,2-ethynediyl)bis(2-((2S)-1-((2R)-2-(4-morpholinyl)-2-phenylacetyl)-2-pyrrolidinyl)-1H-benzimidazole)]	> 8.34
COC(=O)N[C@@H](C(=O)N1CCC[C@H]1c1nc2cc(C#Cc3ccc4[nH]c([C@@H]5CCCN5C(=O)[C@H](NC(=O)OC)c5ccccc5)nc4c3)ccc2[nH]1)c1ccccc1 [Example M23, dimethyl (1,2-ethynediylbis(1H-benzimidazole-5,2-diyl(2S)-2,1-pyrrolidinediyl((1R)-2-oxo-1-phenyl-2,1-ethanediyl)))biscarbamate]	> 8.34
COC(=O)N[C@H](C(=O)N1CCC[C@H]1c1nc2cc(C#Cc3ccc4[nH]c([C@@H]5CCCN5C(=O)[C@@H](NC(=O)OC)C(C)C)nc4c3)ccc2[nH]1)C(C)C [Example M24, methyl ((1S)-1-(((2S)-2-(5-((2-((2S)-1-((2S)-2-((methoxycarbonyl)amino)-3-methylbutanoyl)-2-pyrrolidinyl)-1H-benzimidazol-5-yl)ethynyl)-1H-benzimidazol-2-yl)-1-pyrrolidinyl)carbonyl)-2-methylpropyl)carbamate]	> 8.34
COC(=O)N[C@@H](C)C(=O)N1CCC[C@H]1c1nc2cc(C#Cc3ccc4[nH]c([C@@H]5CCCN5C(=O)[C@H](C)NC(=O)OC)nc4c3)ccc2[nH]1 [Example M25, methyl ((1S)-2-((2S)-2-(5-((2-((2S)-1-(N-(methoxycarbonyl)-L-alanyl)-2-pyrrolidinyl)-1H-benzimidazol-5-yl)ethynyl)-1H-benzimidazol-2-yl)-1-pyrrolidinyl)-1-methyl-2-oxoethyl)carbamate]	7.00 to 8.34
COC(=O)N[C@H](C)C(=O)N1CCC[C@H]1c1nc2cc(C#Cc3ccc4[nH]c([C@@H]5CCCN5C(=O)[C@@H](C)NC(=O)OC)nc4c3)ccc2[nH]1 [Example M26, methyl ((1R)-2-((2S)-2-(5-((2-((2S)-1-(N-(methoxycarbonyl)-D-alanyl)-2-pyrrolidinyl)-1H-benzimidazol-5-yl)ethynyl)-1H-benzimidazol-2-yl)-1-pyrrolidinyl)-1-methyl-2-oxoethyl)carbamate]	> 8.34
O=C(c1nc(Cl)cc2ccccc12)N1CCC[C@H]1c1nc2cc(C#Cc3ccc4nc([C@@H]5CCCN5C(=O)c5nc(Cl)cc6ccccc56)[nH]c4c3)ccc2[nH]1 [Example M26.2, 3-chloro-1-(((2S)-2-(5-((2-((2S)-1-((3-chloro-1-isoquinolinyl)carbonyl)-2-pyrrolidinyl)-1H-benzimidazol-6-yl)ethynyl)-1H-benzimidazol-2-yl)-1-pyrrolidinyl)carbonyl)isoquinoline]	6.00 to 7.00
O=C(OCc1ccccc1)N1CCC[C@H]1c1nc2cc(C#Cc3ccc4nc([C@@H]5CCCN5C(=O)OCc5ccccc5)[nH]c4c3)ccc2[nH]1 [Example M26.4, benzyl (2S)-2-(5-((2-((2S)-1-((benzyloxy)carbonyl)-2-pyrrolidinyl)-1H-benzimidazol-6-yl)ethynyl)-1H-benzimidazol-2-yl)-1-pyrrolidinecarboxylate]	7.00 to 8.34
O=C(c1ccco1)N1CCC[C@H]1c1nc2cc(C#Cc3ccc4[nH]c([C@@H]5CCCN5C(=O)c5ccco5)nc4c3)ccc2[nH]1 [Example M26.6, 5,5′-(1,2-ethynediyl)bis(2-((2S)-1-(2-furoyl)-2-pyrrolidinyl)-1H-benzimidazole)]	7.00 to 8.34
C[C@H](NC(=O)[C@@H](c1ccccc1)N(C)C)c1nc2cc(C#Cc3ccc4nc([C@H](C)NC(=O)[C@@H](c5ccccc5)N(C)C)[nH]c4c3)ccc2[nH]1 [Example M29, (2R)-2-(dimethylamino)-N-((1S)-1-(5-((2-((1S)-1-(((2R)-2-(dimethylamino)-2-phenylacetyl)amino)ethyl)-1H-benzimidazol-6-yl)ethynyl)-1H-benzimidazol-2-yl)ethyl)-2-phenylacetamide]	> 8.34
CC(=O)N[C@@H](C(=O)N[C@@H](C)c1nc2cc(C#Cc3ccc4nc([C@H](C)NC(=O)[C@H](NC(C)=O)c5ccccc5)[nH]c4c3)ccc2[nH]1)c1ccccc1 [Example M30, (2R)-2-acetamido-N-((1S)-1-(5-((2-((1S)-1-(((2R)-2-acetamido-2-phenylacetyl)amino)ethyl)-1H-benzimidazol-6-yl)ethynyl)-1H-benzimidazol-2-yl)ethyl)-2-phenylacetamide]	> 8.34
O=C(Cc1ccccc1)N1CCC[C@H]1c1nc2cc(C#Cc3ccc4[nH]c([C@@H]5CCCN5C(=O)Cc5ccccc5)nc4c3)ccc2[nH]1 [Example M37, 5,5′-(1,2-ethynediyl)bis(2-((2S)-1-(phenylacetyl)-2-pyrrolidinyl)-1H-benzimidazole)]	> 8.34
O=C(Cc1ccccc1)N1C[C@H](O)C[C@H]1c1nc2cc(C#Cc3ccc4[nH]c([C@@H]5C[C@@H](O)CN5C(=O)Cc5ccccc5)nc4c3)ccc2[nH]1 [Example M37.1, (3R,5S,3′R,5′S)-5,5′-(1,2-ethynediylbis(1H-benzimidazole-5,2-diyl))bis(1-(phenylacetyl)-3-pyrrolidinol)]	> 8.34
O=C(Cc1ccccc1)N1C[C@@H](N2CCCC2)C[C@H]1c1nc2cc(C#Cc3ccc4[nH]c([C@@H]5C[C@H](N6CCCC6)CN5C(=O)Cc5ccccc5)nc4c3)ccc2[nH]1 [Example M37.2, (3′S,5′S,3″″S,5″″S)-5′,5″-(1,2-ethynediylbis(1H-benzimidazole-5,2-diyl))bis(1′-(phenylacetyl)-1,3′-bipyrrolidine)]	> 8.34

same assay, conditions: Hepatitis C virus, HCV 1b genotype replicon; numeric values

Compound	pEC50
COC(=O)N[C@@H](C(=O)N[C@@H](C)c1nc2cc(C#Cc3ccc4[nH]c([C@H](C)NC(=O)[C@H](NC(=O)OC)c5ccccc5)nc4c3)ccc2[nH]1)c1ccccc1 [Example M31, dimethyl (1,2-ethynediylbis(1H-benzimidazole-5,2-diyl(1S)-1,1-ethanediylimino((1R)-2-oxo-1-phenyl-2,1-ethanediyl)))biscarbamate]	10.48
